This passage reports Ki, melting point and Solubility results from US10059704B2, “1,4-disubstituted 1,2,3-triazoles, methods for preparing same, and diagnostic and therapeutic uses thereof” (CENTRE NATIONAL DE LA RECHERCHE SCIENTIFIQUE (C.N.R.S.), priority 2011, dated 2018).

Read-outs that look alike come from different tables or passages of the source.

Data set [1] addresses nicotinic receptors Rα7 (Rattus norvegicus, UniProt Q05941). Kind of data set: biochemical. Format: binding.
A short description of data set [2]: Solubility (solvents listed in table). Conditions: solvents in which the compound is soluble, in words.
Setting [3] is: rat frontal cortex membranes, [125I]α-bungarotoxin 2 nM, 22° C., 3 hours, Ki calculated from IC50 (Cheng and Prussof), read-out: Activity on Rα7.

Chain of nicotinic receptors Rα7 (Q05941 23-502): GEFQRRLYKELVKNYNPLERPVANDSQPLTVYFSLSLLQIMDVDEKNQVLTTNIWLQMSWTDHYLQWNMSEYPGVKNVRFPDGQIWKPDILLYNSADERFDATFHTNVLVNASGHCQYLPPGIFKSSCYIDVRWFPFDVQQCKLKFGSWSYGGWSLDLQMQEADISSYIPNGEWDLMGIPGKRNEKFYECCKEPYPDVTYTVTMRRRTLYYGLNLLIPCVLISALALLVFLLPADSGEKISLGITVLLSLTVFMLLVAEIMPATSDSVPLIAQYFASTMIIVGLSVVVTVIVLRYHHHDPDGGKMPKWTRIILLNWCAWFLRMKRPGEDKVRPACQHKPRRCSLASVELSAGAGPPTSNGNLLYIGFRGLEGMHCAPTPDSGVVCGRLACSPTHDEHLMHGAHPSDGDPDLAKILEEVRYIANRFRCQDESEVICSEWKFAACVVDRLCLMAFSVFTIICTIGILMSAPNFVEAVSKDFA

Compound `CN1[C@@H]2CC[C@H]1C[C@@H](n1cc(-c3ccc(F)cc3)nn1)C2` [Compound 17, Endo-3(4-(4-fluorophenyl)-1H-1,2,3-triazol-1-yl)tropane] yielded a melting point of 254 °C. In addition, the Ki in data set [1] turned out to be 210 ± 31 nM. Besides, in data set [2], the Solubility entry is on record as “M = 286.35 g/mol C16H19FN4 CHCl3 − DMSO”.
As to `CN1[C@@H]2CC[C@H]1C[C@@H](n1cc(-c3ccccc3)nn1)C2` [Compound 16, Endo-3-(4-phenyl-1H-1,2,3-triazol-1-yl)tropane], the melting point stood at 135 °C. This compound also showed a Ki in data set [1] of 168 ± 68 nM. For the same compound, the Solubility result in data set [2] is given as “M = 268.36 g/mol C16H20N4 CHCl3 − DMSO”.
`COc1ccc(-c2cn([C@H]3CN4CCC3CC4)nn2)cc1` [Compound 46, (R)-3-(4-(4-Methoxyphenyl)-1H-1,2,3-triazol-1-yl)quinuclidine] had a melting point of 122 °C. Also, the Solubility entry in data set [2] was “M = 284.36 g/mol C16H20N4O DMSO”.
For `CN1[C@@H]2CC[C@H]1C[C@@H](n1cc(-c3ccc(Br)s3)nn1)C2` [Compound 27, Endo-3-(4-(5-bromothiophen-2-yl)-1H-1,2,3-triazol-1-yl)tropane], the melting point was 138 °C. Further, the Ki in data set [1] was determined as 275 ± 43 nM. Besides, in data set [2], the Solubility result is “M = 353.28 g/mol C14H17BrN4S CHCl3 − DMSO”.
For `COc1ccc(-c2cn([C@H]3C[C@H]4CC[C@@H](C3)N4C)nn2)cc1` [Compound 19, Endo-3-(4-(4-methoxyphenyl)-1H-1,2,3-triazol-1-yl)tropane], in that order: 118 °C, 283 ± 76 nM and “M = 298.38 g/mol C17H22N4O CHCl3 − DMSO”.
On to `CN1[C@@H]2CC[C@H]1C[C@@H](n1cc(-c3cccc(F)c3)nn1)C2` [Compound 22, Endo-3-(4-(3-fluorophenyl)-1H-1,2,3-triazol-1-yl)tropane], for which the melting point came out at 124 °C. Also, the Ki in data set [1] amounted to 16 ± 9 nM. Also, the Solubility entry in data set [2] is on record as “M = 286.35 g/mol C16H19FN4 CHCl3 − DMSO”.
Compound `Clc1ccc(-c2cn([C@H]3CN4CCC3CC4)nn2)cc1` [Compound 39, (R)-3-(4-(4-Chlorophenyl)-1H-1,2,3-triazol-1-yl)quinuclidine] showed a melting point of 144 °C. In addition, in data set [1] (setting [3]), the Ki is 8 ± 3 nM.
With `c1cc(-c2ccc(-c3cn([C@H]4CN5CCC4CC5)nn3)s2)ccc1CN1CCOCC1` [Compound 102], the melting point was determined as 222 °C. Moreover, in data set [1] (setting [3]), the Ki is 0.9 nM.
Turning to `COC(=O)c1ccc(-c2ccc(-c3cn([C@H]4CN5CCC4CC5)nn3)s2)cc1F` [Compound 105, Methyl-2-fluoro-4-[5-[1-[(3R)-quinuclidin-3-yl]-1H-1,2,3-triazol-4-yl]-2-thienyl]benzoate], the melting point turned out to be 250 °C. Further, the Ki in data set [1] was found to be 85 nM.
For `Brc1ccc(-c2cn([C@H]3CN4CCC3CC4)nn2)s1` [Compound 54, (R)-3-(4-(5-Bromothiophen-2-yl)-1H-1,2,3-triazol-1-yl) quinuclidine], in that order: 146 °C and 13 ± 4 nM.
As to `c1coc(-c2ccc(-c3cn([C@H]4CN5CCC4CC5)nn3)s2)c1` [Compound 62, (R)-3-(4-(5-(Furan-2-yl)thiophen-2-yl)-1H-1,2,3-triazol-1-yl)quinuclidine], the melting point was found to be 180 °C. In addition, the Ki in data set [1] (setting [3]) was 10 ± 1 nM.
For `Fc1ccc(-c2cn([C@H]3CN4CCC3CC4)nn2)cn1` [Compound 51, (R)-3-(4-(6-fluoropyridin-3-yl)-1H-1,2,3-triazol-1-yl) quinuclidine] the same measures were 147 °C and 469 ± 6 nM.
For `OCc1cccc(-c2csc(-c3cn([C@H]4CN5CCC4CC5)nn3)c2)c1` [Compound 89, (R)-[3-[5-[1-[quinuclidin-3-yl]-1H-1,2,3-triazol-4-yl]-3-thienyl]phenyl]methanol], in that order: 211 °C and 13 nM.
Compound `OCc1ccc(-c2ccc(-c3cn([C@H]4CN5CCC4CC5)nn3)o2)cc1` [Compound 84, (R)-[4-[5-[1-[quinuclidin-3-yl]-1H-1,2,3-triazol-4-yl]-2-furyl]-phenyl]-methanol] returned a melting point of 209 °C. Further, the Ki in data set [1] turned out to be 6 nM.
Take `Fc1ccc(-c2cccc(-c3cn([C@H]4CN5CCC4CC5)nn3)c2)cn1` [Compound 100, (R)-3-[4-[3-(6-fluoro-3-pyridyl)phenyl]-1H-1,2,3-triazol-1-yl]quinuclidine]: the melting point came out at 164 °C. Further, in data set [1] (setting [3]), the Ki was 16 nM.
Regarding `Brc1ccc(-c2cn([C@H]3CN4CCC3CC4)nn2)cc1` [Compound 41, (R)-3-(4-(4-Bromophenyl)-1H-1,2,3-triazol-1-yl)quinuclidine], the melting point turned out to be 158 °C. The same compound registered a Ki in data set [1] of 6 ± 3 nM.
As for `Fc1cccc(-c2cn([C@H]3CN4CCC3CC4)nn2)c1` [Compound 43, (R)-3-(4-(3-Fluorophenyl)-1H-1,2,3-triazol-1-yl)quinuclidine], the melting point was 120 °C. Besides, the Ki in data set [1] (setting [3]) was 10 ± 1 nM.
As to `CN1[C@@H]2CC[C@H]1C[C@@H](n1cc(-c3ccc(Cl)c(Cl)c3)nn1)C2` [Compound 24, Endo-3-(4-(3,4-dichlorophenyl)-1H-1,2,3-triazol-1-yl)tropane], the melting point worked out at 136 °C. Also, in data set [1], the Ki is 110 ± 36 nM. In data set [2], the Solubility result is “M = 337.25 g/mol C16H18Cl2N4 CHCl3 − DMSO”.
For `c1cc(-c2ccc(-c3cn([C@H]4CN5CCC4CC5)nn3)s2)ccc1CN1CCCCC1` [Compound 103, (R)-3-[4-[5-[4-(1-piperidylmethyl)phenyl]-2-thienyl]-1H-1,2,3-triazol-1-yl]quinuclidine], the melting point was determined as 230 °C. Further, the Ki in data set [1] (setting [3]) is 0.3 nM.
`Brc1cccc(-c2cn([C@H]3CN4CCC3CC4)nn2)c1` [Compound 83, (R)-3-[4-(3-bromophenyl)-1H-1,2,3-triazol-1-yl]quinuclidine]: the melting point was determined as 188 °C. For the same compound, the Ki in data set [1] was determined as 11 nM.
For `OCc1ccc(-c2coc(-c3cn([C@H]4CN5CCC4CC5)nn3)c2)cc1` [Compound 90, (R)-[4-[5-[1-[quinuclidin-3-yl]-1H-1,2,3-triazol-4-yl]-3-furyl]phenyl]methanol] the same measures were 202 °C and 9 nM.
For `OCc1cccc(-c2coc(-c3cn([C@H]4CN5CCC4CC5)nn3)c2)c1` [Compound 92, (R)-[3-[5-[1-[quinuclidin-3-yl]-1H-1,2,3-triazol-4-yl]-3-furyl]phenyl]methanol] the same measures were 212 °C and 115 nM.
On to `OCc1ccc(-c2ccc(-c3cn([C@H]4CN5CCC4CC5)nn3)cc2)cc1` [Compound 93, (R)-[4-[4-[1-[quinuclidin-3-yl]-1H-1,2,3-triazol-4-yl]phenyl]phenyl]methanol], for which the melting point worked out at 250 °C. Also, in data set [1], the Ki came out at 137 nM.
As for `FC1(c2cn(-c3ccc(Br)cc3)nn2)CN2CCC1CC2` (centres unmarked) [Compound 71, 3-Fluoro-3-(1-(4-bromophenyl)-1H-1,2,3-triazol-4-yl)quinuclidine], the melting point is 127 °C. In addition, the Ki in data set [1] (setting [3]) was 150 ± 10 nM.
For `OCc1cccc(-c2cccc(-c3cn([C@H]4CN5CCC4CC5)nn3)c2)c1` [Compound 99, (R)-[3-[3-[1-[quinuclidin-3-yl]-1H-1,2,3-triazol-4-yl]phenyl]phenyl]methanol], in that order: 201 °C and 1.4 nM.
Turning to `OCc1ccc(-c2ccc(-c3cn([C@H]4CN5CCC4CC5)nn3)s2)cc1` [Compound 63, (R)-(4-(5-(1-(quinuclidin-3-yl)-1H-1,2,3-triazol-4-yl)thiophen-2-yl)phenyl)methanol], the melting point is 253 °C. The Ki in data set [1] (setting [3]) is 0.6 ± 0.2 nM.
On to `c1cc2cc(-c3cn([C@H]4CN5CCC4CC5)nn3)ccc2o1` [Compound 56, (R)-3-(4-(Benzofuran-5-yl)-1H-1,2,3-triazol-1-yl)quinuclidine], for which the melting point was found to be 178 °C. In data set [1] (setting [3]), the Ki is 3 ± 1 nM.
The compound `CN1[C@@H]2CC[C@H]1C[C@@H](n1cc(-c3ccc4sccc4c3)nn1)C2` [Compound 25, Endo-3-(4-(1-Benzothiophen-5-yl)-1H-1,2,3-triazol-1-yl)tropane] yielded a melting point of 163 °C. In data set [1], this compound gave a Ki of 14 ± 4 nM. Besides, the Solubility result in data set [2] was “M = 324.44 g/mol C18H20N4S CHCl3 − DMSO”.
The compound `Fc1ccc(-c2cn([C@H]3CN4CCC3CC4)nn2)cc1F` [Compound 45, (R)-3-(4-(3,4-difluorophenyl)-1H-1,2,3-triazol-1-yl) quinuclidine] gave a melting point of 122 °C. In addition, in data set [1] (setting [3]), the Ki was 10 ± 4 nM.
In turn, `CN1[C@@H]2CC[C@H]1C[C@@H](n1cc(-c3ccc4occc4c3)nn1)C2` [Compound 26, Endo-3-(4-(1-benzofuran-5-yl)-1H-1,2,3-triazol-1-yl)topane] gave a melting point of 104 °C. For the same compound, in data set [1], the Ki worked out at 13 ± 5 nM. In addition, the Solubility result in data set [2] is recorded as “M = 308.38 g/mol C18H20N4O CHCl3 − DMSO”.
